From ChEMBL document CHEMBL5291721, “A preclinical secondary pharmacology resource illuminates target-adverse drug reaction associations of marketed drugs” (Nat Commun, 2023) come the findings set out here.

The target in experiment [1] is T1, Alpha-2C adrenergic receptor (Homo sapiens, UniProt P18825).
T1 sequence (P18825 whole entry): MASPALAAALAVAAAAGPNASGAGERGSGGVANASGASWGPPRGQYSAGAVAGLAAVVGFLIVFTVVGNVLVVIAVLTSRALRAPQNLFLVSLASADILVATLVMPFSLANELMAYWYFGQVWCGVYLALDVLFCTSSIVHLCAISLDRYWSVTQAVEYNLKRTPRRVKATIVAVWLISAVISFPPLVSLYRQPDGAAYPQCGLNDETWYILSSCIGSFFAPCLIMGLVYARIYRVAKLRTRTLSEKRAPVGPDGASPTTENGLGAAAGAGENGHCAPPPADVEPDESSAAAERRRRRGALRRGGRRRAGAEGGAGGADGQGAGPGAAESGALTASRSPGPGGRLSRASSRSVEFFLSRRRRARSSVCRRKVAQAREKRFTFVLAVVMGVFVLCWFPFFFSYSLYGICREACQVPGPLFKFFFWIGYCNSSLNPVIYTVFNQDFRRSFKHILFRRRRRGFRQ
In kind it is functional.

Experiment [2] has as its target T2, Muscarinic acetylcholine receptor M2 (Homo sapiens, UniProt P08172).
T2 sequence (P08172 whole entry): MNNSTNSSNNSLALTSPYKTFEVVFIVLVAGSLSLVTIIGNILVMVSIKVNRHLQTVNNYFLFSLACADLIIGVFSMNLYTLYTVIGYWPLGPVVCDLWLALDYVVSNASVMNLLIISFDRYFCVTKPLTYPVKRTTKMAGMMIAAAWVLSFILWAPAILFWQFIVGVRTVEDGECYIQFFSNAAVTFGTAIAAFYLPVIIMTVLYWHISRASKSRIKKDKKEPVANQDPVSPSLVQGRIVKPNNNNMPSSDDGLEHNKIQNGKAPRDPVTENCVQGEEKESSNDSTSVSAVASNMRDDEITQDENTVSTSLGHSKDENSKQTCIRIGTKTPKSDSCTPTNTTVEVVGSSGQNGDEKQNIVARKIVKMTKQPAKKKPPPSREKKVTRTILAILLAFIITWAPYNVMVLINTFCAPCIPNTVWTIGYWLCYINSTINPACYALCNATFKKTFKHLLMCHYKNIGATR
In kind it is functional, cell-based.

A further experiment has as its target T3, Adenosine receptor A3 (Homo sapiens, UniProt P0DMS8).
T3 sequence (P0DMS8 whole entry): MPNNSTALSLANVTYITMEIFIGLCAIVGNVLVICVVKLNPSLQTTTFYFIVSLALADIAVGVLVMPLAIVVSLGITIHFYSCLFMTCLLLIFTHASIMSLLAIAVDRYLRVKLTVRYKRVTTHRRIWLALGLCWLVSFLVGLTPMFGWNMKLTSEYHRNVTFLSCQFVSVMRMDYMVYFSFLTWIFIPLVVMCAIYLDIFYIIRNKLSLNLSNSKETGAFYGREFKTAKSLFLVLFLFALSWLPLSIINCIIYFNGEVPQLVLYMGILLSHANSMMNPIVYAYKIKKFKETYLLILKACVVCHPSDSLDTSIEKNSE

The target in experiment [3] is Gamma-aminobutyric acid receptor subunit alpha-1 (Rattus norvegicus, UniProt P62813).
The target in experiment [4] is T4, Alpha-2B adrenergic receptor (Homo sapiens, UniProt P18089).
T4 sequence (P18089 whole entry): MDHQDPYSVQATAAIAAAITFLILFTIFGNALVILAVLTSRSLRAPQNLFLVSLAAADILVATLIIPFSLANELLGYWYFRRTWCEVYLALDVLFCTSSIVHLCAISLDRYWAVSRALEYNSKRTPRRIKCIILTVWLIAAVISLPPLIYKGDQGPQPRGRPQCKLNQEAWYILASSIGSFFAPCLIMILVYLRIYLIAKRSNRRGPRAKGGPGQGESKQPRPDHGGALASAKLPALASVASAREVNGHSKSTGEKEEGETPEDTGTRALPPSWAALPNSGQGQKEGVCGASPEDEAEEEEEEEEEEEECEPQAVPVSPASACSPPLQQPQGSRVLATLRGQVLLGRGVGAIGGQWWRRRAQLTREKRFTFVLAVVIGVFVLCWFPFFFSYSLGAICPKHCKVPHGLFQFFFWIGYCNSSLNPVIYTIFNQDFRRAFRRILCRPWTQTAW

The target of experiment [5] is Delta-type opioid receptor (Homo sapiens, UniProt P41143).
Another experiment deals with Cannabinoid receptor 1 (Homo sapiens, UniProt P21554). In kind it is functional, cell-based.
Experiment [6] deals with T5, Alpha-1A adrenergic receptor (Homo sapiens, UniProt P35348).
T5 sequence (P35348 whole entry): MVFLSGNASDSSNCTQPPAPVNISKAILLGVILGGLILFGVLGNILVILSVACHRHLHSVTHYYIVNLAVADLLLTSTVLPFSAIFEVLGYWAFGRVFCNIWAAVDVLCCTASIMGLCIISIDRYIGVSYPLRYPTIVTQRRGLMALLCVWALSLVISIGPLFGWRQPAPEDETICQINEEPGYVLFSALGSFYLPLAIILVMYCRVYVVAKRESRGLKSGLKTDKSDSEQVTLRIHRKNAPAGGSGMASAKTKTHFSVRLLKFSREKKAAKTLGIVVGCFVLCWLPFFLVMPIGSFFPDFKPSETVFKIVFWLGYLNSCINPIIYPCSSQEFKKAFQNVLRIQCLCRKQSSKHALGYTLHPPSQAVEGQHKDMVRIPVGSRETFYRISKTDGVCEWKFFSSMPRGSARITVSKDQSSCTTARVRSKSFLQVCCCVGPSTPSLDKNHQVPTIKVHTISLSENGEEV
Type of experiment: functional, cell-based.

The target in experiment [7] is T2, Muscarinic acetylcholine receptor M2. Type of experiment: functional, cell-based. This is another data set of the same source.
Note: assay procedure not described here.

Gamma-aminobutyric acid receptor subunit alpha-1, sequence (P62813 whole entry): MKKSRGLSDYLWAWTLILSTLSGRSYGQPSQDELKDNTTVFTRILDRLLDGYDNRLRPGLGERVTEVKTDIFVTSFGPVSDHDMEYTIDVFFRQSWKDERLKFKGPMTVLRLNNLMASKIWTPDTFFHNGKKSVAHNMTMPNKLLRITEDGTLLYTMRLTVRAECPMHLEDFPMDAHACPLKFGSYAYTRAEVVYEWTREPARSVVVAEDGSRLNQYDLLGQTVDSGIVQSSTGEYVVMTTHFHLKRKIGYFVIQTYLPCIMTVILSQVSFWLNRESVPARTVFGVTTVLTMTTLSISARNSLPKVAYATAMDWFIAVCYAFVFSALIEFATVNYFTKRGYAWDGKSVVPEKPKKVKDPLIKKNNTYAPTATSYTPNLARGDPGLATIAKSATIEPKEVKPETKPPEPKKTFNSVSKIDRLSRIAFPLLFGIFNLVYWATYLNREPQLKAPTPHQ
Cannabinoid receptor 1, sequence (P21554 whole entry): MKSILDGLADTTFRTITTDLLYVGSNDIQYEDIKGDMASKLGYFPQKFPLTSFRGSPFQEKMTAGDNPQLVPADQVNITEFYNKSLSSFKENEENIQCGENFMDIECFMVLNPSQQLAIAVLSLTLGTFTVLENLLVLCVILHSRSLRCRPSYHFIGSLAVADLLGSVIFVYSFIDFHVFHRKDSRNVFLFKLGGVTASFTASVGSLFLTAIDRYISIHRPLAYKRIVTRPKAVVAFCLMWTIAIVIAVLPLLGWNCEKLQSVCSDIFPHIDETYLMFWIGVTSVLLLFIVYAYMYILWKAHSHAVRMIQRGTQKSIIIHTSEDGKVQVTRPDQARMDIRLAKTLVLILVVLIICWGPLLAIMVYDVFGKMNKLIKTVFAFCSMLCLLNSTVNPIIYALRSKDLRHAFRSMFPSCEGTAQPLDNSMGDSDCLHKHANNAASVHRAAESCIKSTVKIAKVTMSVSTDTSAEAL
Delta-type opioid receptor, sequence (P41143 whole entry): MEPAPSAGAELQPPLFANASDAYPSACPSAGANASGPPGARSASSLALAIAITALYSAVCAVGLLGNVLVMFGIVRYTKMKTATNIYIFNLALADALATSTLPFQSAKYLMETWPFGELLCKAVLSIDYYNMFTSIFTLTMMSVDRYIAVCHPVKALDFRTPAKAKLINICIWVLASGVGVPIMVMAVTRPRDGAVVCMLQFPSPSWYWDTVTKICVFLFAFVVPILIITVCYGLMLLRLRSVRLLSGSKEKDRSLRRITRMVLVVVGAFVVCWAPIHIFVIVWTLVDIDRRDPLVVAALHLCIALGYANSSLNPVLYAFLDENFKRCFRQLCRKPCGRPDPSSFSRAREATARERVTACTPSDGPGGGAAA

Usually AC50 stands for the midpoint of the concentration-response curve, whichever way the signal moves. As to `CN(C/C=C/c1ccccc1)Cc1cccc2ccccc12` [NAFTIFINE], the AC50 was 4.8 µM in [1]; more than 10 µM in experiment [2]; more than 30 µM at Adenosine receptor A3; more than 10 µM in experiment [3]; more than 10 µM in [4]; more than 30 µM in experiment [5]. The AC50 on Cannabinoid receptor 1 was more than 30 µM; in [6], more than 30 µM; in experiment [7] it was more than 10 µM.
With `O=C(Cn1ccnc1[N+](=O)[O-])NCc1ccccc1` [BENZNIDAZOLE], the AC50 (in experiment [1]; in experiment [2]; on Adenosine receptor A3; in experiment [3]; in experiment [4]; in experiment [5]) was more than 30 µM in each case. The AC50 (on Cannabinoid receptor 1; in experiment [6]; in experiment [7]) was more than 30 µM each time.
Regarding `CCCC(=O)N1CCCN(c2nc(N)c3cc(OC)c(OC)cc3n2)CC1` [BUNAZOSIN], the AC50 was 0.55 µM in [1]; more than 30 µM in [2]; more than 30 µM on Adenosine receptor A3; more than 30 µM in [3]; 1.7 µM in experiment [4]; more than 30 µM in [5]. Besides, the AC50 (at Cannabinoid receptor 1; in experiment [6]; in [7]) was more than 30 µM throughout.
`CC(C)(N)Cc1ccc(Cl)cc1` [CHLORPHENTERMINE]: the AC50 in experiment [1] was more than 10 µM; in experiment [2], more than 10 µM; on Adenosine receptor A3 it was more than 30 µM; in experiment [3] it was more than 10 µM; in experiment [4], more than 10 µM; in experiment [5], more than 30 µM. Besides, the AC50 is more than 30 µM on Cannabinoid receptor 1, more than 30 µM in experiment [6] and more than 10 µM in experiment [7].
Turning to `COCC1=C(C(=O)OC(C)OC(=O)OC(C)C)N2C(=O)[C@@H](NC(=O)/C(=N\OC)c3csc(N)n3)[C@H]2SC1` (some centres not stated) [CEFPODOXIME PROXETIL], the AC50 (in experiment [1]; in experiment [2]; in [3]; in experiment [4]; in [5]; at Cannabinoid receptor 1) was more than 30 µM in each case. Moreover, the AC50 in experiment [6] and in [7] was more than 30 µM throughout.
For `CN1C(=O)N(C)C2C1N(C)C(=O)N2C` (configuration not stated) [MEBICAR], the AC50 in experiment [1] was 14 µM; in [2], more than 30 µM; in experiment [3], more than 30 µM; in [4] it was more than 30 µM; in [5], more than 30 µM; at Cannabinoid receptor 1 it was more than 30 µM. The AC50 in experiment [6] and in experiment [7] was more than 30 µM in each case.
Turning to `CC(C(O)c1ccc(O)cc1)N1CCC(Cc2ccccc2)CC1` (configuration not stated) [IFENPRODIL], the concentration at half-maximal activity (AC50) was 0.89 µM in experiment [1]; more than 30 µM in experiment [2]; more than 30 µM on Adenosine receptor A3; more than 30 µM in experiment [3]; 0.44 µM in experiment [4]; more than 30 µM in experiment [5]. Also, the AC50 (at Cannabinoid receptor 1; in experiment [6]; in experiment [7]) was more than 30 µM in each case.
As to `CC(C)NCC1CCc2cc(CO)c([N+](=O)[O-])cc2N1` (configuration not stated) [OXAMNIQUINE], the AC50 is more than 10 µM in [1]; more than 10 µM in experiment [2]; more than 10 µM on Adenosine receptor A3; more than 10 µM in experiment [3]; more than 10 µM in experiment [4]; more than 30 µM in [5]. For the same molecule, the AC50 on Cannabinoid receptor 1 was more than 30 µM; in [6], more than 30 µM; in experiment [7], more than 10 µM.
With `CC(=O)N(CC(O)CO)c1c(I)c(C(=O)NCC(O)CO)c(I)c(C(=O)NCC(O)CO)c1I` (configuration not stated) [IOHEXOL], the AC50 in experiment [1] was more than 10 µM; in experiment [2] it was more than 10 µM; at Adenosine receptor A3 it was more than 30 µM; in experiment [3] it was more than 10 µM; in experiment [4], more than 10 µM; in experiment [5], more than 30 µM. In addition, the values for the AC50 (at Cannabinoid receptor 1; in [6]; in [7]) were more than 30 µM, more than 30 µM and more than 10 µM, respectively.
For the molecule `CN(CCCN1c2ccccc2CCc2ccccc21)CC(=O)c1ccc(Cl)cc1` [LOFEPRAMINE], the AC50 was 17 µM in experiment [1]; more than 30 µM in experiment [2]; 18 µM on Adenosine receptor A3; more than 30 µM in experiment [3]; 4 µM in experiment [4]; 30 µM in experiment [5]. Further, the AC50 is 3.5 µM at Cannabinoid receptor 1, more than 30 µM in experiment [6] and more than 30 µM in experiment [7].
Consider `C[N+](C)(C)CC(=O)O` [BETAINE], for which the AC50 (in experiment [1]; in experiment [2]; on Adenosine receptor A3; in experiment [3]; in [4]; in experiment [5]) was more than 30 µM each time. In addition, the AC50 (at Cannabinoid receptor 1; in experiment [6]; in experiment [7]) was more than 30 µM in each case.
For the molecule `N[C@@H](CSCC(=O)O)C(=O)O` [CARBOCYSTEINE], the AC50 (in experiment [1]; in experiment [2]; at Adenosine receptor A3; in experiment [3]; in experiment [4]; in [5]) was more than 30 µM in each case. The AC50 (at Cannabinoid receptor 1; in [6]; in [7]) was more than 30 µM each time.
Regarding `NS(=O)(=O)c1cc(-c2nnn[nH]2)c(NCc2cccs2)cc1Cl` [AZOSEMIDE], the AC50 (in [1]; in [2]; on Adenosine receptor A3; in experiment [3]; in [4]; in [5]) was more than 30 µM throughout. For the same molecule, the AC50 (at Cannabinoid receptor 1; in experiment [6]; in experiment [7]) was more than 30 µM each time.
With `C=C1C[C@@H]2[C@H](CC[C@]3(C)C(=O)CC[C@@H]23)[C@@]2(C)C=CC(=O)C=C12` [EXEMESTANE], the AC50 is more than 10 µM in experiment [1]; more than 10 µM in experiment [2]; more than 30 µM on Adenosine receptor A3; more than 10 µM in experiment [3]; more than 10 µM in experiment [4]; more than 30 µM in [5]. The AC50 is more than 30 µM at Cannabinoid receptor 1, more than 30 µM in experiment [6] and more than 10 µM in experiment [7].
In the case of `Nc1ccc(/N=N/c2ccccc2)c(N)n1` [PHENAZOPYRIDINE], the AC50 was 3.7 µM in [1]; more than 30 µM in [2]; more than 30 µM in [3]; 3.2 µM in experiment [4]; 2.9 µM in experiment [5]; more than 30 µM on Cannabinoid receptor 1. Moreover, the AC50 in experiment [6] and in experiment [7] was more than 30 µM in each case.
